Assay [1] has as its system Homeodomain-interacting protein kinase 2 (Homo sapiens), Q9H2X6 [UNDEFINED MUTATION]. Put plainly: Inhibition of recombinant human HIPK2 I471N mutant (165 to 564 residues) assessed as residual activity at 10 uM using myelin basic protein as substrate measured after 40 mins in presence of [gamma33P]ATP by scintillation counting method.
The target in assay [2] is Serine/threonine-protein kinase ULK3 (Homo sapiens) (UniProt Q6PHR2). Put plainly: Inhibition of recombinant full-length human ULK3 assessed as residual activity at 10 uM using casein as substrate measured after 40 mins in presence of [gamma33P]ATP by scintillation counting method.
Assay [3] concerns the target 3-phosphoinositide-dependent protein kinase 1 (Homo sapiens) (UniProt O15530). Nature of the assay: Inhibition of recombinant human PDK1 (52 to end residues) assessed as residual activity at 10 uM using PDKtide as substrate measured after 40 mins in presence of [gamma33P]ATP by scintillation counting method.
The target of assay [4] is Proto-oncogene tyrosine-protein kinase Src (Homo sapiens) (UniProt P12931). Put plainly: Inhibition of human Src (1 to 530 residues) using GGEEEEYFELVKKKK as substrate measured after 40 mins in presence of [gamma33P]ATP by scintillation counting method. Further details: scale not given: the % may be the effect or the level left.
Sequence of Proto-oncogene tyrosine-protein kinase Src (Homo sapiens) (P12931 2-536 limits assumed): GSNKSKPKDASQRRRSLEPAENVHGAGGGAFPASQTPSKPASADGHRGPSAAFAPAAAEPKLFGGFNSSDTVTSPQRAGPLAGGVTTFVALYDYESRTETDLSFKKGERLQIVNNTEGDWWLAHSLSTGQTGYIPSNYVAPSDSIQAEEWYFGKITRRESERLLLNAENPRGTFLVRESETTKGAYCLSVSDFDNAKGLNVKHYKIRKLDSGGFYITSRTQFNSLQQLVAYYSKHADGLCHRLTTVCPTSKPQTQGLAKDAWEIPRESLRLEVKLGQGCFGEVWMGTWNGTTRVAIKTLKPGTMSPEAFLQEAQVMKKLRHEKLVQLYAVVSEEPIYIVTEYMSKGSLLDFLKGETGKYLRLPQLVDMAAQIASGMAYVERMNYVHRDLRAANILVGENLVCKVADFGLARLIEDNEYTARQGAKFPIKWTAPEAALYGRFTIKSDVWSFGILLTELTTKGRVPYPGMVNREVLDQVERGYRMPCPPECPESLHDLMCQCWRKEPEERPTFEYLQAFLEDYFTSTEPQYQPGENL
The target in assay [5] is Dual specificity mitogen-activated protein kinase kinase 1 (Homo sapiens) (UniProt Q02750). Nature of the assay: Inhibition of recombinant full-length human MEK1 assessed as residual activity at 10 uM using unactive MAPK2 as substrate measured after 40 mins in presence of [gamma33P]ATP by scintillation counting method.
Sequence of Dual specificity mitogen-activated protein kinase kinase 1 (Homo sapiens) (Q02750 whole entry): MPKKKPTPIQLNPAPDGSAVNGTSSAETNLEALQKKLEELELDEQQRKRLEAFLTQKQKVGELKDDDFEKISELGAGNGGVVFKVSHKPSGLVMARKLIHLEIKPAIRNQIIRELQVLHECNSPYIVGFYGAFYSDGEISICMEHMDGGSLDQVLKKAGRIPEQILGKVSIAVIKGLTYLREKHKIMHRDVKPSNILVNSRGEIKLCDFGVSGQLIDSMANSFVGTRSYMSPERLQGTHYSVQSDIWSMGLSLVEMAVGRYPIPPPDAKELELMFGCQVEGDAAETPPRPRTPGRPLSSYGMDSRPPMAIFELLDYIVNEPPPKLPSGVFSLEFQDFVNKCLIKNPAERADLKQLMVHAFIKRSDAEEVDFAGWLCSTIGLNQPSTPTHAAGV
The next assay is filed under the species Mus musculus. Put plainly: Inhibition of recombinant full-length mouse PI3K p110alpha/p85alpha assessed as residual activity at 10 uM using phosphatidylinositol-4, 5-bisphosphate as substrate measured after 40 mins by HTRF assay. A general note: TR-FRET usually uses a lanthanide donor and a delayed reading to cut background.
A further assay has as its system SW-620. Put plainly: Cell cycle arrest in human SW620 cells assessed as up regulation of CyclinB1 expression up to 150 nM after 24 hrs by Western blot analysis. Type of assay: functional, cell-based.
Assay [6] has as its target Tribbles homolog 2 (Homo sapiens) (UniProt Q92519). Nature of the assay: Inhibition of recombinant full-length human TRB2 assessed as residual activity at 10 uM using RRRFRPASPLRGPPK as substrate measured after 120 mins in presence of [gamma33P]ATP by scintillation counting method.
For the next assay, the species on record is Homo sapiens. Nature of the assay: Inhibition of recombinant full-length human AURKA I31F mutant assessed as residual activity at 10 uM using LRRASLG as substrate measured after 40 mins in presence of [gamma33P]ATP by scintillation counting method.
In assay [7] the test system is Serine/threonine-protein kinase N1 (Homo sapiens), Q16512 [V901I]. Put plainly: Inhibition of human PRK1 V901I mutant (498 to end residues) using KKLNRTLSFAEPG as substrate measured after 40 mins in presence of [gamma33P]ATP by scintillation counting method. Further details: scale not given: the % may be the effect or the level left.
The subject of assay [8] is Ribosomal protein S6 kinase beta-1 (Homo sapiens), P23443 [T412E]. Nature of the assay: Inhibition of recombinant human p70S6K T412E mutant (1 to 421 residues) assessed as residual activity at 10 uM using KKRNRTLTV as substrate measured after 40 mins in presence of [gamma33P]ATP by scintillation counting method.
Assay [9] addresses Serine/threonine-protein kinase Chk1 (Homo sapiens) (UniProt O14757). Put plainly: Inhibition of recombinant full length human CHK1 assessed as residual activity at 10 uM using KKKVSRSGLYRSPSMPENLNRPR as substrate measured after 40 mins in presence of [gamma33P]ATP by scintillation counting method.
Assay [10] addresses Serine/threonine-protein kinase MRCK gamma (Homo sapiens) (UniProt Q6DT37). Nature of the assay: Inhibition of recombinant human MRCKgamma assessed as residual activity at 10 uM using KKRNRTLTV as substrate measured after 40 mins in presence of [gamma33P]ATP by scintillation counting method.
The target in assay [11] is Activin receptor type-2A (Homo sapiens) (UniProt P27037). Put plainly: Inhibition of recombinant human ACTR2 (162 to end residues) assessed as residual activity at 10 uM using casein as substrate measured after 120 mins in presence of [gamma33P]ATP by scintillation counting method.
Sequence of Activin receptor type-2A (Homo sapiens) (P27037 whole entry): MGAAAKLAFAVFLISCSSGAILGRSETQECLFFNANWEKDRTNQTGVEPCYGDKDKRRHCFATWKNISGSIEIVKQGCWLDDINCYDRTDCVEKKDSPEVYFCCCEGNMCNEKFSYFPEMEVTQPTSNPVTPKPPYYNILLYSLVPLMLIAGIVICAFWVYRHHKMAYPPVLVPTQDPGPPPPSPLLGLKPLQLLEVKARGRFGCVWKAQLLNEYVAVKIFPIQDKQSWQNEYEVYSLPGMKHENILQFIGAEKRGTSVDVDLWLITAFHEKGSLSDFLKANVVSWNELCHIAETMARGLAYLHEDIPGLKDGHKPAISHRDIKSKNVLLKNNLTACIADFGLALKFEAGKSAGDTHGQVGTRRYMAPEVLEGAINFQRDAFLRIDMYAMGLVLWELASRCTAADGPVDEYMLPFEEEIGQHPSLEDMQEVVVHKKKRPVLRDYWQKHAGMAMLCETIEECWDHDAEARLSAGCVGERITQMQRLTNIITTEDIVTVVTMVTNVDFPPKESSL

Calls of active or inactive are those of the source. The rule behind the calls is not given here.

Sequence of Serine/threonine-protein kinase MRCK gamma (Homo sapiens) (Q6DT37 whole entry): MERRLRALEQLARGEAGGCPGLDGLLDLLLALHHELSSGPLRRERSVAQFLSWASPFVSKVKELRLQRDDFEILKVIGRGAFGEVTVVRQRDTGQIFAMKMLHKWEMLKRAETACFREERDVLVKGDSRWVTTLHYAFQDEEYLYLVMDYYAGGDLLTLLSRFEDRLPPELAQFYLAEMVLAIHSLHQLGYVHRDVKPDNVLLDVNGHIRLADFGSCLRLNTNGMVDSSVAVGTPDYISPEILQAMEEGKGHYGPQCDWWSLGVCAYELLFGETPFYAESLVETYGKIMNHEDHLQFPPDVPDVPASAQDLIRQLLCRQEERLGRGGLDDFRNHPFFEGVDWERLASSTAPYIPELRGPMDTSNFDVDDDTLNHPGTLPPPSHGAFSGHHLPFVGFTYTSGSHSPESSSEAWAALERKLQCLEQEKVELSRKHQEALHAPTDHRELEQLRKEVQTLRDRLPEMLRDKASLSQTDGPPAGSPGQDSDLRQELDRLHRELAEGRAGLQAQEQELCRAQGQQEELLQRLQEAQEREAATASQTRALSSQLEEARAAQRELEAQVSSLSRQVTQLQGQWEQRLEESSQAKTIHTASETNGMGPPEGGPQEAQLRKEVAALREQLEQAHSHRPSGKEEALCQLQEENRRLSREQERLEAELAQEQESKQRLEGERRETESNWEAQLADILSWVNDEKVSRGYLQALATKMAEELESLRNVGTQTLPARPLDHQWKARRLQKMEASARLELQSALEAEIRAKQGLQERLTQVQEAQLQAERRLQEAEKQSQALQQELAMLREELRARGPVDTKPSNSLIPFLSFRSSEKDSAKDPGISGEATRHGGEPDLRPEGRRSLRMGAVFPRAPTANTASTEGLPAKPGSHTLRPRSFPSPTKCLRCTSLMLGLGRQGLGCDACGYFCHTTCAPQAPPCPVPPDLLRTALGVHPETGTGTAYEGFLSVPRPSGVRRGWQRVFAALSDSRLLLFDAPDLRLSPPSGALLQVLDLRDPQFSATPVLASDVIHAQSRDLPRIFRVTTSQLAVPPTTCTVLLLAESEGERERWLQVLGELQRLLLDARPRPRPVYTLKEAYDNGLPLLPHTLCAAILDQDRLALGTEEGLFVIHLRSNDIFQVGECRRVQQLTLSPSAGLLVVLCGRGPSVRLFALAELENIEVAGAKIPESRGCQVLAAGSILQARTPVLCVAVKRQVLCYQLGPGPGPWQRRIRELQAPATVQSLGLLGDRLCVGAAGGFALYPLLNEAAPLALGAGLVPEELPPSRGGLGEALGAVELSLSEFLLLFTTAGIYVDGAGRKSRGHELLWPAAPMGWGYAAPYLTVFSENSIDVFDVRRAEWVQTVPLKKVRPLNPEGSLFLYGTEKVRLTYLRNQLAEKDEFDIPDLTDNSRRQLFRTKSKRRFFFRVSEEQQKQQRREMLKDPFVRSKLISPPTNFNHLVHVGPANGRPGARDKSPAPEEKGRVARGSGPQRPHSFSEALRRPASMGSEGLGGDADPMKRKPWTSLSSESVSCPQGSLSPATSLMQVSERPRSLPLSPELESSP
Sequence of Tribbles homolog 2 (Homo sapiens) (Q92519 whole entry): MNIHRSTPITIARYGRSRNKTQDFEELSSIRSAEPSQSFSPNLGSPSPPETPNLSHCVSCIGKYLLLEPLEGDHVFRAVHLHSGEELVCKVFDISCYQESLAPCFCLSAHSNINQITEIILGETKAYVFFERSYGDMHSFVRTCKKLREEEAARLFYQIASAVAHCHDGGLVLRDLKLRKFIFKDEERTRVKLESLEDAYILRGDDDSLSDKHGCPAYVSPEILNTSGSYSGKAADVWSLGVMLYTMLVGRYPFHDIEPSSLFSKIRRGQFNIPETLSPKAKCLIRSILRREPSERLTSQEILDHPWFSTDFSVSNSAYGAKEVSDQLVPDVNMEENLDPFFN
Sequence of Serine/threonine-protein kinase Chk1 (Homo sapiens) (O14757 whole entry): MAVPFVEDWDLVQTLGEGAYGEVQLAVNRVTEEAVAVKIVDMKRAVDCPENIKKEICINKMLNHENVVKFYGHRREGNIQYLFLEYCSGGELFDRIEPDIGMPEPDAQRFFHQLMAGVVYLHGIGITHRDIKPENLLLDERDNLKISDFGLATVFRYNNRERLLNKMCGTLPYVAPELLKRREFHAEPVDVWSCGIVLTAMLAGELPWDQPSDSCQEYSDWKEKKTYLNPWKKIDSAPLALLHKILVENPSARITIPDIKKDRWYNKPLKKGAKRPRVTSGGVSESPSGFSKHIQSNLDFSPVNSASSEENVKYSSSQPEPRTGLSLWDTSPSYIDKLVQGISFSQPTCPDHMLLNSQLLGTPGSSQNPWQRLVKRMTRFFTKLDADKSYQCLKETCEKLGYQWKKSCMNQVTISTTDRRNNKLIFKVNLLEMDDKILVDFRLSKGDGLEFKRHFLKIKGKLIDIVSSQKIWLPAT
Sequence of Ribosomal protein S6 kinase beta-1 (Homo sapiens), P23443 [T412E] (P23443 whole entry T412E, looked up, the tested form may be a part): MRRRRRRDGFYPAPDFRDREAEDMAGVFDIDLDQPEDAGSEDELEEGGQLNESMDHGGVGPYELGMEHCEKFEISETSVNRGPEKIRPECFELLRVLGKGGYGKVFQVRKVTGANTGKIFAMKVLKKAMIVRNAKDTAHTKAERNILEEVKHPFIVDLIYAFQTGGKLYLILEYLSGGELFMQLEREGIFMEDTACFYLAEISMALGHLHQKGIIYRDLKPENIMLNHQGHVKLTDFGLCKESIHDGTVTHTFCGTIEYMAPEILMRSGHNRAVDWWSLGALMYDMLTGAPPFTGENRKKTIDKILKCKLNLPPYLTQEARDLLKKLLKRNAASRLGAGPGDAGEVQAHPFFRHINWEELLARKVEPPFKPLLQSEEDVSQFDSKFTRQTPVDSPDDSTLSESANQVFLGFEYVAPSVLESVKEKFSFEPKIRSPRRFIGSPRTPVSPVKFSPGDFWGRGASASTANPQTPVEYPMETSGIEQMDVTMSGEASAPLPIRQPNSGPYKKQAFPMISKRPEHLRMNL
Sequence of 3-phosphoinositide-dependent protein kinase 1 (Homo sapiens) (O15530 whole entry, the tested form may be a part): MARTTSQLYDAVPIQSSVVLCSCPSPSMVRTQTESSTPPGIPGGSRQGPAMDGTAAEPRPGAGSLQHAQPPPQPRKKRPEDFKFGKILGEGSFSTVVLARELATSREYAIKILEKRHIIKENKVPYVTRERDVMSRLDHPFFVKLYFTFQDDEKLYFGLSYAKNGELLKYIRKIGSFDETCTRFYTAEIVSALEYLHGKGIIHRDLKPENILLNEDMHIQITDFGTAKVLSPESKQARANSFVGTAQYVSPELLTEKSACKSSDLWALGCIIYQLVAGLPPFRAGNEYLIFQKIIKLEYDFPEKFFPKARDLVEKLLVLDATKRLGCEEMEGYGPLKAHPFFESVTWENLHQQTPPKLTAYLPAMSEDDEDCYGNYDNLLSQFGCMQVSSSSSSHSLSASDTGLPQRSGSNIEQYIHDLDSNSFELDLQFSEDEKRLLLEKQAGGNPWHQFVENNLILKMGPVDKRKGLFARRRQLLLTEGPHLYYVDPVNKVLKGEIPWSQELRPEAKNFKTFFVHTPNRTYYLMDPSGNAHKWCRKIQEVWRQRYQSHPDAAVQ

Turning to `Cc1cc(C)c(CNc2nc(Cl)nc3c2ncn3C2CCCC2)c(=O)[nH]1`, the Activity worked out at 104% in assay [1]; 102% in [2]; 91% in assay [3]; 124% in assay [4]; 100% in [5]; 99.5% in the assay filed under Mus musculus. Also, the Activity in assay [6] is 90.5%; in the assay filed under Homo sapiens, 103%; in [7] it was 98.5%; in assay [8], 105%; in assay [9] it was 106%; in [10] it was 122%. For the same molecule, the Activity in assay [11] came out at 104%. Also, in the assay on SW-620, the result was Active.

The values are drawn from ChEMBL document CHEMBL4311992, “Discovery of 3-(((9H-purin-6-yl)amino)methyl)-4,6-dimethylpyridin-2(1H)-one derivatives as novel tubulin polymerization inhibitors for treatment of cancer” (Eur J Med Chem, 2019).
